ChEMBL document CHEMBL5465560, “Selectivity Literature for EUbOPEN Chemogenomic Library” (2024)

Legend:
[1] = biological target: Casein kinase I isoform delta (Homo sapiens, UniProt P48730); test: Selectivity interaction (Millipore kinase profiler) EUB0000124b CSNK1D; settings: at 10 µM
[2] = biological target: T1, Ephrin type-A receptor 3 (Homo sapiens) (UniProt P29320); test: Selectivity interaction (KinomeScan (DiscoverX)) EUB0000666a EPHA3; settings: at 10 µM
T1 sequence (whole entry): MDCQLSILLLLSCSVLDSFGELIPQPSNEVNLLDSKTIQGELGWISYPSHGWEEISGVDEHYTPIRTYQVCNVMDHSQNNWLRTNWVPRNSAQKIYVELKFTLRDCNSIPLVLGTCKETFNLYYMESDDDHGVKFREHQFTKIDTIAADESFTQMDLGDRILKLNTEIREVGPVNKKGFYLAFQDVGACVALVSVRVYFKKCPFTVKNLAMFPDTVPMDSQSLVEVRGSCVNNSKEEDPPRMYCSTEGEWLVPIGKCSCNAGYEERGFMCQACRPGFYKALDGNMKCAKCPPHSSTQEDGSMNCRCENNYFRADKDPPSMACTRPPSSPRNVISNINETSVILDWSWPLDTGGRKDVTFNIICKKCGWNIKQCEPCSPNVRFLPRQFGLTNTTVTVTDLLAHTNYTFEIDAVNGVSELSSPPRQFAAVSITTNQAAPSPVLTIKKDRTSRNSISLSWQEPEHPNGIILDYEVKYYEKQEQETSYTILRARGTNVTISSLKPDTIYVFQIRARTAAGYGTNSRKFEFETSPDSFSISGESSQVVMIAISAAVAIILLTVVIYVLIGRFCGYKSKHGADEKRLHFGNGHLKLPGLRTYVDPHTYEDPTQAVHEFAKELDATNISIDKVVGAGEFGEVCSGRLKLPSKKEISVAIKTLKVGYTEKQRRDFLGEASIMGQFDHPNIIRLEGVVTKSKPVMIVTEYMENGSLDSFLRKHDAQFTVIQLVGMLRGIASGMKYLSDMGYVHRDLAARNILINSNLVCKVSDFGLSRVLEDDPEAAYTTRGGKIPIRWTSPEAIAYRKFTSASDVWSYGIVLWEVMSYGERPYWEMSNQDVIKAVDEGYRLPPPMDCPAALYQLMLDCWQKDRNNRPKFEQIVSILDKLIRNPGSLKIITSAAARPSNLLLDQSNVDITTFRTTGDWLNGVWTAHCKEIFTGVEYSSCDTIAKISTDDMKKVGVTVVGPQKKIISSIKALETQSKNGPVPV

[3] = biological target: T2, Serine/threonine-protein kinase TAO2 (Homo sapiens) (UniProt Q9UL54); test: Selectivity interaction (KinomeScan (DiscoverX)) EUB0000595a TAOK2; settings: at 10 µM
T2 sequence (whole entry): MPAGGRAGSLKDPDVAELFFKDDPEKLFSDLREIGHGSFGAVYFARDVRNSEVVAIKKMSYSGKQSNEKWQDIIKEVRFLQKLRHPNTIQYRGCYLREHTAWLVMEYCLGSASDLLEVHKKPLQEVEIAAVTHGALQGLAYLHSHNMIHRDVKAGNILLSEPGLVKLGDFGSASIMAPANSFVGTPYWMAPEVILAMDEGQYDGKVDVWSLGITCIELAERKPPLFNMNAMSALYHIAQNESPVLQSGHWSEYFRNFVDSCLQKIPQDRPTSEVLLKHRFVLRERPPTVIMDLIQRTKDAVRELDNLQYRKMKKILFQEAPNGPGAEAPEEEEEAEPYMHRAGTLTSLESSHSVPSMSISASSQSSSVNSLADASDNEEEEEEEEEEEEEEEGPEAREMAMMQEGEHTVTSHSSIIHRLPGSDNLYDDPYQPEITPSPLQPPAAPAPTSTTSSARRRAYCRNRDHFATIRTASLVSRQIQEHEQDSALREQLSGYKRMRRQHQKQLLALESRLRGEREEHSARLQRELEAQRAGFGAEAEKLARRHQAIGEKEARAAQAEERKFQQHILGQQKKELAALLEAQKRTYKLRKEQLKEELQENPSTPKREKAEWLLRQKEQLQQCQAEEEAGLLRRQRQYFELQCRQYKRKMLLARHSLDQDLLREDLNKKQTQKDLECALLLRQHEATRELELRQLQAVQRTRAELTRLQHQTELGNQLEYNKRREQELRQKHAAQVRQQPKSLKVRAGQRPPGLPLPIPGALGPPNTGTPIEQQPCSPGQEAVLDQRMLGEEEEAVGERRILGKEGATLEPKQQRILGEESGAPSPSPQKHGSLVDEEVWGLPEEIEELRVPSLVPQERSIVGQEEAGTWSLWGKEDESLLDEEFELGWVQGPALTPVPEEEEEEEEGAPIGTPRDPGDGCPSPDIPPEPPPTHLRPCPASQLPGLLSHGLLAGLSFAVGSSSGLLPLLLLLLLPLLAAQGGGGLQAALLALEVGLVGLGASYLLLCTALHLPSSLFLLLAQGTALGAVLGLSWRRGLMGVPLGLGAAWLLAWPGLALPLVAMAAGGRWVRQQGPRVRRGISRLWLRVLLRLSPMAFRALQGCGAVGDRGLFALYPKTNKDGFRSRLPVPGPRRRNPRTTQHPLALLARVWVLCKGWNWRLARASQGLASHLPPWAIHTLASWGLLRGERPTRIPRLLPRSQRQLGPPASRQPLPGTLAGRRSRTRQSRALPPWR

[4] = biological target: Dual specificity protein kinase CLK3 (Homo sapiens, UniProt P49761)
Chain of Dual specificity protein kinase CLK3 (P49761 whole entry, looked up, canonical isoform): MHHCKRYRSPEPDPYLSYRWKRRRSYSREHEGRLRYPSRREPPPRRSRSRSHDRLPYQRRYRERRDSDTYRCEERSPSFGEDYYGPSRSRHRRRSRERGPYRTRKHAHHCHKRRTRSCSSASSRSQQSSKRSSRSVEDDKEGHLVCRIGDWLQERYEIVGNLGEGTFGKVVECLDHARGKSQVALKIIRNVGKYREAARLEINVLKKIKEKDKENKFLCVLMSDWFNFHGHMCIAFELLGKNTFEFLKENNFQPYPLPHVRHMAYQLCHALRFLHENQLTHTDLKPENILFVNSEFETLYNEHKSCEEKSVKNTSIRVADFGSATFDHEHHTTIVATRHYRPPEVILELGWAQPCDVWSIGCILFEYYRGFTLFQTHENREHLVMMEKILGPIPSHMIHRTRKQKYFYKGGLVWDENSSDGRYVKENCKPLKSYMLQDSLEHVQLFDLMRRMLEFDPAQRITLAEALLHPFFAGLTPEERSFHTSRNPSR

[5] = biological target: Casein kinase I isoform alpha (Homo sapiens, UniProt P48729); test: Selectivity interaction (Kinase screening (Upstate/Millipore)) EUB0000604a CSNK1A1
Chain of Casein kinase I isoform alpha (P48729 2-337 limits assumed): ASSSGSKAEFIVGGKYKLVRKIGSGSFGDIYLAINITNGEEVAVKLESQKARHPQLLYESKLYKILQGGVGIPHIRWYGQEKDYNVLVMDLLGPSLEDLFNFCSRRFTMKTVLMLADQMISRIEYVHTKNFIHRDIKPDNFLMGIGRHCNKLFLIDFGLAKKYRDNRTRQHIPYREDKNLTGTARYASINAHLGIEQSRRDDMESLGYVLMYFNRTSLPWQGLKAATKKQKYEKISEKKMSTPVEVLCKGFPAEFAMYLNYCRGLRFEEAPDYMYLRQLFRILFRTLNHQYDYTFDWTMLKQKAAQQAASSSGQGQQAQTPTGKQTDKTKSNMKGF

[6] = biological target: Tyrosine-protein kinase JAK2 (Homo sapiens, UniProt O60674); test: Selectivity interaction (Ambit KINOMEscan and KiNATiv profiling in Jurkat cells) EUB0000090b JAK2; format: cell-based; settings: at 1 µM
Chain of Tyrosine-protein kinase JAK2 (O60674 whole entry): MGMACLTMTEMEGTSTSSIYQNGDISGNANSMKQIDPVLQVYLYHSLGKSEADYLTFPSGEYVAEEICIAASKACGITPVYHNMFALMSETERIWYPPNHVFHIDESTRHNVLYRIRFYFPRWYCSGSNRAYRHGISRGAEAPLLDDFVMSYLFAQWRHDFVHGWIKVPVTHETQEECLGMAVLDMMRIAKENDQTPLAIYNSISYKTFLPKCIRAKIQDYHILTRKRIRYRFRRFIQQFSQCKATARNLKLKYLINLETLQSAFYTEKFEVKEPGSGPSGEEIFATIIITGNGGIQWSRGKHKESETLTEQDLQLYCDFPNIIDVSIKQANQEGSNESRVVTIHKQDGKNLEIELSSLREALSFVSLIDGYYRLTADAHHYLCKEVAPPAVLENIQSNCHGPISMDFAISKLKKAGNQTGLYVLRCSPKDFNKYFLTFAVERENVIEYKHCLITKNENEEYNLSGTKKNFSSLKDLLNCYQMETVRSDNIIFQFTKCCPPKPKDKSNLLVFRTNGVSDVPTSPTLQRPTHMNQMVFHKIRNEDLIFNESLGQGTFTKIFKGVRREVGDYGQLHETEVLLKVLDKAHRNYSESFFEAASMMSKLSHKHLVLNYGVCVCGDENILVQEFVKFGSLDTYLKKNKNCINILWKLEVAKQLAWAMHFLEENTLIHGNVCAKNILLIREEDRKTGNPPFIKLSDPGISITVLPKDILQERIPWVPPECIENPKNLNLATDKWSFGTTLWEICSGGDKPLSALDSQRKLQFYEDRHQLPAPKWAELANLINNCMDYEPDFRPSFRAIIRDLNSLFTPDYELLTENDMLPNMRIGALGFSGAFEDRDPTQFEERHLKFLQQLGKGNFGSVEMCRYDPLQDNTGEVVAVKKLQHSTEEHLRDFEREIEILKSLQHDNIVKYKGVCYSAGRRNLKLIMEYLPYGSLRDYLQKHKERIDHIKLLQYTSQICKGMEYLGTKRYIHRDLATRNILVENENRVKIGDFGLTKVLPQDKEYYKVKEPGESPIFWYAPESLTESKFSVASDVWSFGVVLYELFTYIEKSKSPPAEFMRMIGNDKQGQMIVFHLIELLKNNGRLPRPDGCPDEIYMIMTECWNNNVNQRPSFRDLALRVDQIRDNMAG

[7] = biological target: T3, Rhodopsin kinase GRK7 (Homo sapiens) (UniProt Q8WTQ7); test: Selectivity interaction (KinomeScan (DiscoverX)) EUB0000607a GRK7; settings: at 10 µM
T3 sequence (whole entry): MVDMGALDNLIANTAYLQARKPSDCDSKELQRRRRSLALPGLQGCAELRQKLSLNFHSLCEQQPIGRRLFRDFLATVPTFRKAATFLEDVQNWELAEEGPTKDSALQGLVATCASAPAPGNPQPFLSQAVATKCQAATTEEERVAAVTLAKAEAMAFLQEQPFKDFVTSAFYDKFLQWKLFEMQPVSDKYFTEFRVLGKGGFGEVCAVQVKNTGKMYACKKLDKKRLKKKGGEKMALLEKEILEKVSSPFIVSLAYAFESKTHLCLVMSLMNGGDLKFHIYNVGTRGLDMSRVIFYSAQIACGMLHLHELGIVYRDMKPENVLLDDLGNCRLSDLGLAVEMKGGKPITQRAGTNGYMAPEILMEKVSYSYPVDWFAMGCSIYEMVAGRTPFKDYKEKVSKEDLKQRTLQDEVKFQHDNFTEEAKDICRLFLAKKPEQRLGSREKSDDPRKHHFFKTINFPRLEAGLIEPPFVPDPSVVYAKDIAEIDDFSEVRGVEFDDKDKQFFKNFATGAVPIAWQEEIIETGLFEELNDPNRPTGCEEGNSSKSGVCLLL

Chain of Casein kinase I isoform delta (P48730 whole entry, looked up, canonical isoform): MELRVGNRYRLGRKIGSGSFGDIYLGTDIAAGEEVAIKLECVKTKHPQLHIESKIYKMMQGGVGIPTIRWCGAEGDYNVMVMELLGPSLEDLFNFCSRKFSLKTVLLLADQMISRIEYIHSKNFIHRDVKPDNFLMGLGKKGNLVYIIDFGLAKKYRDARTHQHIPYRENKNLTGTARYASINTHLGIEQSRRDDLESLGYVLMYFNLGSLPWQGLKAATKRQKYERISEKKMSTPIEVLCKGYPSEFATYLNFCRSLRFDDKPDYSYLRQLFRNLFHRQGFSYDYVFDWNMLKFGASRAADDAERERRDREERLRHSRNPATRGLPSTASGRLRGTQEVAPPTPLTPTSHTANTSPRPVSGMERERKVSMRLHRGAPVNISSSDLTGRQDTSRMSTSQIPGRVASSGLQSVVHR

`CC(=O)Nc1cccc(-n2c(=O)n(C3CC3)c(=O)c3c(Nc4ccc(I)cc4F)n(C)c(=O)c(C)c32)c1` showed a % of control [1] of 105%.
`O=C(NOC[C@H](O)CO)c1ccc(F)c(F)c1Nc1ccc(I)cc1F` gave a % of control [2] of 100%.
In the case of `COCC(=O)NC/C=C/c1ccc2ncnc(Nc3ccc(Oc4ccc(C)nc4)c(C)c3)c2c1` [CP-724714], the % of control [3] is reported as 100%.
`Cc1cnc(Nc2ccc(F)cc2Cl)nc1-c1c[nH]c(C(=O)N[C@H](CO)c2cccc(Cl)c2)c1` was tested, and the % of inhibition [4] was 9% and the % of inhibition [5] was 25%.
`CN(C)C/C=C/C(=O)Nc1ccc(C(=O)N2CCCC(Nc3ncc(Cl)c(-c4c[nH]c5ccccc45)n3)C2)cc1` (configuration not stated) gave a % of control [6] of 89%.
`CNC(=O)Nc1ccc(-c2nc(N3CC4CCC(C3)O4)c3cnn(C4CCC5(CC4)OCCO5)c3n2)cc1` showed a % of control [7] of 91%.
